Source: US20030032587A1, “Urocortin peptides” (The Salk Institute for Biological Studies, priority 1995, published 2003)
Bridges are numbered along the chain shown (N, C = ends). Where no end group is shown, it is not given here. [ ]: non-standard residue; d: D form.

T1: human CRF binding protein (human, UniProt P24387 25-322)
T1 construct: also called hCRF-BP; CRF-BP
T1 sequence (looked up): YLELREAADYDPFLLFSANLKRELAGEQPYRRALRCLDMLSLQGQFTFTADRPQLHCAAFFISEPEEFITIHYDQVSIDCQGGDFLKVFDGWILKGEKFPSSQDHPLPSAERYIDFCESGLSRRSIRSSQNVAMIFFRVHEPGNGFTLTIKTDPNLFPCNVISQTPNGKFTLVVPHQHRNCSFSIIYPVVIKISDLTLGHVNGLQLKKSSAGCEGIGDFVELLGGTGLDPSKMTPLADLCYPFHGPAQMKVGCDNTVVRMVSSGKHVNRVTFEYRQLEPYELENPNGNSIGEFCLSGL


Columns and labels:
[1] = tested on: mammalian mean arterial blood pressure; test: in vivo test measuring elevation of mean arterial blood pressure as a result of iv injection; conditions: result in words; indicative of a Ucn antagonist
Excerpt: The peptide, Ucn(11-40), having the amino acid sequence (see SEQ ID NO: 8): […] is synthesized in the manner described in Example I. To evaluate the biological activity of a candidate peptide as a Ucn antagonist (which will be indicative of its effective binding to CRF receptors), the previously mentioned assay from Endocrinology, 91, supra, is run in the presence of a challenge dose of ovine CRF. […] An in vivo test measuring elevation of mean arterial blood pressure as a result of iv injection is also simply and straightforwardly performed.

[2] = tested on: rat anterior pituitary cells; test: ACTH secretion by anterior pituitary cell cultures in the presence of a challenge dose of ovine CRF (antagonist test); format: cell-based; conditions: challenge dose of ovine CRF; relative to [D-Phe12,Nle21,38]-r/hCRF(12-41)
Excerpt: A straightforward assay using rat anterior pituitary cells in monolayer culture can be carried out to determine whether a candidate peptide thereof will function as a CRF agonist and stimulate ACTH secretion by activating CRF receptors on such cells. The procedure which is used is that generally set forth in Endocrinology, 91, supra. A very similar assay is used to test for antagonistic properties, using a challenge dose of oCRF or the like.
An in vivo test measuring elevation of mean arterial blood pressure as a result of iv injection is also simply and straightforwardly performed.

[3] = target: CRF receptors on anterior pituitary cells in culture; test: cell-based or functional assay
[4] = target: T1, human CRF binding protein; test: competitive hCRF-BP ligand binding assay with [125I-DTyr0]hCRF
Method: After incubating with the primary and secondary antisera for 30 minutes each, 1 ml of saline wash is added, and the test tubes are centrifuged at 2000× g for 20 minutes at 4° C. Precipitates are counted in a gamma counter. Inhibitory binding affinity constant (Kᵢ) values are determined using parameters calculated by the LIGAND computer program, Munson et al., Anal. Biochem., 107, 220 (1980), and a Vax/VMS computer system.

| binding result [4] | Molecule | vasoconstrictive activity causing elevation of mean arterial blood pressure [1] | inhibition of ACTH secretion in vitro, times as effective as the Standard Antagonist (confidence limits) [2] | other results |
| --- | --- | --- | --- | --- |
| – | H-D-Pro-D-Phe-His-Leu-Leu-Arg-Thr-Leu-Leu-Glu-Leu-Ala-Arg-Thr-Gln-Ser-Gln-Arg-Glu-Glu-Ala-D-Glu-Lys-Asn-Arg-Ile-Ile-Phe-Asp-Ser-Val-NH2 (H-[dP][dF]HLLRTLLELARTQSQREEA[dE]KNRIIFDSV-NH2; lactam 20-23; SMILES CC[C@H](C)[C@H](NC(=O)[C@H](CCCNC(=N)N)NC(=O)[C@H](CC(N)=O)NC(=O)[C@@H]1CCCCNC(=O)CC[C@H](NC(=O)[C@H](CCC(=O)O)NC(=O)[C@H](CCCNC(=N)N)NC(=O)[C@H](CCC(N)=O)NC(=O)[C@H](CO)NC(=O)[C@H](CCC(N)=O)NC(=O)[C@@H](NC(=O)[C@H](CCCNC(=N)N)NC(=O)[C@H](C)NC(=O)[C@H](CC(C)C)NC(=O)[C@H](CCC(=O)O)NC(=O)[C@H](CC(C)C)NC(=O)[C@H](CC(C)C)NC(=O)[C@@H](NC(=O)[C@H](CCCNC(=N)N)NC(=O)[C@H](CC(C)C)NC(=O)[C@H](CC(C)C)NC(=O)[C@H](Cc2c[nH]cn2)NC(=O)[C@@H](Cc2ccccc2)NC(=O)[C@H]2CCCN2)[C@@H](C)O)[C@@H](C)O)C(=O)N[C@@H](C)C(=O)N[C@H](CCC(=O)O)C(=O)N1)C(=O)N[C@H](C(=O)N[C@@H](Cc1ccccc1)C(=O)N[C@@H](CC(=O)O)C(=O)N[C@@H](CO)C(=O)N[C@H](C(N)=O)C(C)C)[C@@H](C)CC) | significant mammalian vasoconstrictive activity | 4.99 (2.26-11.55) | – |
| – | H-D-Tyr-His-Leu-Leu-Arg-Thr-Leu-Leu-Glu-Leu-Ala-Arg-Thr-Gln-Ser-Gln-Arg-Glu-Glu-Ala-Glu-Lys-Asn-Arg-Ile-Ile-Phe-Asp-Ser-Val-NH2 (H-[dY]HLLRTLLELARTQSQREEAEKNRIIFDSV-NH2; lactam 19-22; SMILES CC[C@H](C)[C@H](NC(=O)[C@H](CCCNC(=N)N)NC(=O)[C@H](CC(N)=O)NC(=O)[C@@H]1CCCCNC(=O)CC[C@H](NC(=O)[C@H](CCC(=O)O)NC(=O)[C@H](CCCNC(=N)N)NC(=O)[C@H](CCC(N)=O)NC(=O)[C@H](CO)NC(=O)[C@H](CCC(N)=O)NC(=O)[C@@H](NC(=O)[C@H](CCCNC(=N)N)NC(=O)[C@H](C)NC(=O)[C@H](CC(C)C)NC(=O)[C@H](CCC(=O)O)NC(=O)[C@H](CC(C)C)NC(=O)[C@H](CC(C)C)NC(=O)[C@@H](NC(=O)[C@H](CCCNC(=N)N)NC(=O)[C@H](CC(C)C)NC(=O)[C@H](CC(C)C)NC(=O)[C@H](Cc2c[nH]cn2)NC(=O)[C@H](N)Cc2ccc(O)cc2)[C@@H](C)O)[C@@H](C)O)C(=O)N[C@@H](C)C(=O)N[C@@H](CCC(=O)O)C(=O)N1)C(=O)N[C@H](C(=O)N[C@@H](Cc1ccccc1)C(=O)N[C@@H](CC(=O)O)C(=O)N[C@@H](CO)C(=O)N[C@H](C(N)=O)C(C)C)[C@@H](C)CC) | significant mammalian vasoconstrictive activity | 4.01 (2.32-7.05) | – |
| – | H-D-Phe-His-Leu-Leu-Arg-Thr-Leu-Leu-Glu-Leu-Ala-Arg-Thr-Gln-Ser-Gln-Arg-Glu-Glu-Ala-D-Glu-Lys-Asn-Arg-Ile-Ile-Phe-Asp-Ser-Val-NH2 (H-[dF]HLLRTLLELARTQSQREEA[dE]KNRIIFDSV-NH2; lactam 19-22 (inferred)) | significant mammalian vasoconstrictive activity | 4.72 (2.19-10.00) | – |
| – | H-D-Phe-His-Leu-Leu-Arg-Thr-Leu-Leu-Glu-Leu-Ala-Arg-Thr-Gln-Ser-Gln-Arg-Glu-Arg-Ala-Glu-Gln-Asn-Arg-Ile-Ile-Phe-Asp-Ser-Val-NH2 (H-[dF]HLLRTLLELARTQSQRERAEQNRIIFDSV-NH2; SMILES CC[C@H](C)[C@H](NC(=O)[C@H](CCCNC(=N)N)NC(=O)[C@H](CC(N)=O)NC(=O)[C@H](CCC(N)=O)NC(=O)[C@H](CCC(=O)O)NC(=O)[C@H](C)NC(=O)[C@H](CCCNC(=N)N)NC(=O)[C@H](CCC(=O)O)NC(=O)[C@H](CCCNC(=N)N)NC(=O)[C@H](CCC(N)=O)NC(=O)[C@H](CO)NC(=O)[C@H](CCC(N)=O)NC(=O)[C@@H](NC(=O)[C@H](CCCNC(=N)N)NC(=O)[C@H](C)NC(=O)[C@H](CC(C)C)NC(=O)[C@H](CCC(=O)O)NC(=O)[C@H](CC(C)C)NC(=O)[C@H](CC(C)C)NC(=O)[C@@H](NC(=O)[C@H](CCCNC(=N)N)NC(=O)[C@H](CC(C)C)NC(=O)[C@H](CC(C)C)NC(=O)[C@H](Cc1c[nH]cn1)NC(=O)[C@H](N)Cc1ccccc1)[C@@H](C)O)[C@@H](C)O)C(=O)N[C@H](C(=O)N[C@@H](Cc1ccccc1)C(=O)N[C@@H](CC(=O)O)C(=O)N[C@@H](CO)C(=O)N[C@H](C(N)=O)C(C)C)[C@@H](C)CC) [[D-Phe^11]-Ucn(11-40)] | significant mammalian vasoconstrictive activity | 0.551 (0.333-0.857) | – |
| – | H-Pro-D-Phe-His-Leu-Leu-Arg-Thr-Leu-Leu-Glu-Leu-Ala-Arg-Thr-Gln-Ser-Gln-Arg-Glu-Glu-Ala-D-Glu-Lys-Asn-Arg-Ile-Ile-Phe-Asp-Ser-Val-NH2 (H-P[dF]HLLRTLLELARTQSQREEA[dE]KNRIIFDSV-NH2; lactam 20-23; SMILES CC[C@H](C)[C@H](NC(=O)[C@H](CCCNC(=N)N)NC(=O)[C@H](CC(N)=O)NC(=O)[C@@H]1CCCCNC(=O)CC[C@H](NC(=O)[C@H](CCC(=O)O)NC(=O)[C@H](CCCNC(=N)N)NC(=O)[C@H](CCC(N)=O)NC(=O)[C@H](CO)NC(=O)[C@H](CCC(N)=O)NC(=O)[C@@H](NC(=O)[C@H](CCCNC(=N)N)NC(=O)[C@H](C)NC(=O)[C@H](CC(C)C)NC(=O)[C@H](CCC(=O)O)NC(=O)[C@H](CC(C)C)NC(=O)[C@H](CC(C)C)NC(=O)[C@@H](NC(=O)[C@H](CCCNC(=N)N)NC(=O)[C@H](CC(C)C)NC(=O)[C@H](CC(C)C)NC(=O)[C@H](Cc2c[nH]cn2)NC(=O)[C@@H](Cc2ccccc2)NC(=O)[C@@H]2CCCN2)[C@@H](C)O)[C@@H](C)O)C(=O)N[C@@H](C)C(=O)N[C@H](CCC(=O)O)C(=O)N1)C(=O)N[C@H](C(=O)N[C@@H](Cc1ccccc1)C(=O)N[C@@H](CC(=O)O)C(=O)N[C@@H](CO)C(=O)N[C@H](C(N)=O)C(C)C)[C@@H](C)CC) | significant mammalian vasoconstrictive activity | 2.74 (1.02-8.02) | – |
| – | DNPSLSIDLTFHLLRTLLELARTQSQRERAEQNRIIFDSV-NH2 [Human Ucn(1-40)] | – | – | ACTH secretion, anterior pituitary cell cultures, potency relative to r/hCRF [3]: 3.1 times r/hCRF |
| – | [dF]HLLRTLLELARTQSQRERAEQNRIIFDSV-NH2 (N-terminus assumed; SMILES CC[C@H](C)[C@H](NC(=O)[C@H](CCCNC(=N)N)NC(=O)[C@H](CC(N)=O)NC(=O)[C@H](CCC(N)=O)NC(=O)[C@H](CCC(=O)O)NC(=O)[C@H](C)NC(=O)[C@H](CCCNC(=N)N)NC(=O)[C@H](CCC(=O)O)NC(=O)[C@H](CCCNC(=N)N)NC(=O)[C@H](CCC(N)=O)NC(=O)[C@H](CO)NC(=O)[C@H](CCC(N)=O)NC(=O)[C@@H](NC(=O)[C@H](CCCNC(=N)N)NC(=O)[C@H](C)NC(=O)[C@H](CC(C)C)NC(=O)[C@H](CCC(=O)O)NC(=O)[C@H](CC(C)C)NC(=O)[C@H](CC(C)C)NC(=O)[C@@H](NC(=O)[C@H](CCCNC(=N)N)NC(=O)[C@H](CC(C)C)NC(=O)[C@H](CC(C)C)NC(=O)[C@H](Cc1c[nH]cn1)NC(=O)[C@H](N)Cc1ccccc1)[C@@H](C)O)[C@@H](C)O)C(=O)N[C@H](C(=O)N[C@@H](Cc1ccccc1)C(=O)N[C@@H](CC(=O)O)C(=O)N[C@@H](CO)C(=O)N[C@H](C(N)=O)C(C)C)[C@@H](C)CC) [[D-Phe11]-Ucn(11-40)] | – | – | antagonism of ACTH secretion under a challenge dose of ovine CRF, potency relative to the Standard Antagonist [D-Phe12, Nle21,38]-r/hCRF(12-41) (times Standard Antagonist) [3]: 0.551 |
| – | DDPPLSIDLTFHLLRTLLELARTQSQRERAEQNRIIFDSV-NH2 [rat urocortin (rat Ucn)] | – | – | EC50, secretion of ACTH in cultured rodent pituitary cells [3]: 6 pM |
| binds | SIDLTFHLLRTLIELARTQSQRER (Printed without NH2 at the C-terminus) [[Ile18]-Ucn(6-29)] | – | – | – |
| binds | LSIDLTFHLLRTLLELARTQSQRERAEQ (Printed without NH2 at the C-terminus) [Ucn(5-32)] | – | – | – |
| binds | DLTFHLLRTLLELARTQSQRERAEQ (Printed without NH2 at the C-terminus) [Ucn(8-32)] | – | – | – |
| binds | PPLSIDLTFHLLRTLLELARTQSQR (Printed without NH2) [Ucn(3-27)] | – | – | – |
